≈ marks a conversion by molar mass, not a printed value.

Chain of KRAS (G12D)::SOS1 protein-protein interaction (P01116 other isoform, or with tags, fused parts or gaps G12D): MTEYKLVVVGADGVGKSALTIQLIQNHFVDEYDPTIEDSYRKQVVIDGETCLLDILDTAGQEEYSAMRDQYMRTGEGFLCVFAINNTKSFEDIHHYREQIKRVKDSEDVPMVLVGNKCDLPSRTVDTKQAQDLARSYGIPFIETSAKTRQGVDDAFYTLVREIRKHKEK

System in one data set: not listed separately
As to the kind of experiment: Plasma protein binding assay (PPB), equilibrium dialysis. In kind it is in vitro ADME. The note with it: bovine, 10% FCS in PBS, read-out: PPB 10% FCS (% fu). On the procedure:
Binding of test compounds to plasma was determined using equilibrium dialysis (ED) and quantitative mass spectrometry interfaced with liquid chromatography (LC-MS). In brief, ED was performed with dialysis devices consisting of two chambers separated by a semipermeable membrane with a molecular weight cut-off of 5-10 kg/mol. One chamber was filled with 10% FCS in PBS containing 1-10 μmol/L test compound and the other chamber was filled with phosphate-buffer saline (PBS) with or without dextran. The dialysis chamber was incubated for 3-5 hours at 37° C. After incubation, protein was precipitated from aliquots of each chamber and the concentration of test compound in the supernatant of the plasma-containing compartment (cserum) and of the buffer-containing compartment (cbuffer) was determined by LC-MS. The fraction of unbound test compound (not bound to plasma) (f) was calculated according to the following equation: […]
On the technique in general: In equilibrium dialysis free small molecules cross a membrane that holds back macromolecules.
In the case of `C[C@H](Oc1nc(-c2noc3c2CCC[C@@]32CCCc3sc(N)c(C#N)c32)nc2c1COC[C@@]21CCOC1)[C@@H]1CCCN1C` [II-9a], the fraction unbound amounted to 0.07.

As for `CO[C@H]1C[C@@H](n2c(=O)n(C)c3c(O[C@@H](C)[C@@H]4CCCN4C)nc(-c4onc5c4CCC[C@@]54CCCc5sc(N)c(C#N)c54)nc32)C1` [I-31], the fraction unbound was 0.09.

`CO[C@@H]1C[C@@H]([C@H](C)Oc2nc(-c3noc4c3CCC[C@@]43CCCc4sc(N)c(C#N)c43)nc3c2COC[C@]32CCOC2)N(C)C1` [II-11]: the fraction unbound was 0.09.

Take `C[C@H](Oc1nc(-c2onc3c2CCC[C@@]32CCCc3sc(N)c(C#N)c32)nc2c1n(C)c(=O)n2C12COC(C1)C2)[C@@H]1CCCN1C` [I-15]: the fraction unbound came to 0.13.

System in a further data set: not listed separately
As to the kind of experiment: Solubility measurement (DMSO solution precipitation method). The data set is classed as physicochemical. As to conditions: aqueous buffer, kinetic from dmso stock, McIlvaine buffer pH 4.5, 24 h, read-out: solubility pH 4.5. The method, then: A 10 mM DMSO stock solution of a test compound is used to determine its aq. solubility. The DMSO solution is diluted with an aq. medium (McIlvaine buffer with pH=4.5 or 6.8) to a final concentration of 250 μM. After 24 h of shaking at ambient temperature a potentially formed precipitate is removed by filtration. The concentration of the test compound in the filtrate is determined by LC-UV methods by calibrating the signal to the signal of a reference solution with complete dissolution of the test compound in acetonitrile/water (1:1) with known concentration.
Consider `C[C@H](Oc1nc(-c2noc3c2CCC[C@@]32CCCc3sc(N)c(C#N)c32)nc2c1COC[C@@]21CCOC1)[C@@H]1CCCN1C` [II-9a], for which the solubility (in general, how much of the substance goes into solution per volume) at 24 h is greater than 141 µg/mL.

Take `CO[C@H]1C[C@@H](n2c(=O)n(C)c3c(O[C@@H](C)[C@@H]4CCCN4C)nc(-c4onc5c4CCC[C@@]54CCCc5sc(N)c(C#N)c54)nc32)C1` [I-31]: the solubility at 24 h was greater than 158 µg/mL.

Consider `CO[C@@H]1C[C@@H]([C@H](C)Oc2nc(-c3noc4c3CCC[C@@]43CCCc4sc(N)c(C#N)c43)nc3c2COC[C@]32CCOC2)N(C)C1` [II-11], for which the solubility at 24 h was greater than 144 µg/mL.

Take `C[C@H](Oc1nc(-c2onc3c2CCC[C@@]32CCCc3sc(N)c(C#N)c32)nc2c1n(C)c(=O)n2C12COC(C1)C2)[C@@H]1CCCN1C` [I-15]: the solubility at 24 h is greater than 150 µg/mL.

Still in this data set, the particulars now being: aqueous buffer, kinetic from dmso stock, McIlvaine buffer pH 6.8, 24 h, read-out: solubility pH 6.8.
For the molecule `C[C@H](Oc1nc(-c2noc3c2CCC[C@@]32CCCc3sc(N)c(C#N)c32)nc2c1COC[C@@]21CCOC1)[C@@H]1CCCN1C` [II-9a], the solubility at 24 h is greater than 138 µg/mL.

As to `CO[C@H]1C[C@@H](n2c(=O)n(C)c3c(O[C@@H](C)[C@@H]4CCCN4C)nc(-c4onc5c4CCC[C@@]54CCCc5sc(N)c(C#N)c54)nc32)C1` [I-31], the solubility at 24 h is greater than 148 µg/mL.

Take `CO[C@@H]1C[C@@H]([C@H](C)Oc2nc(-c3noc4c3CCC[C@@]43CCCc4sc(N)c(C#N)c43)nc3c2COC[C@]32CCOC2)N(C)C1` [II-11]: the solubility at 24 h stood at 45 µg/mL (≈ 71.1 µM).

In the case of `C[C@H](Oc1nc(-c2onc3c2CCC[C@@]32CCCc3sc(N)c(C#N)c32)nc2c1n(C)c(=O)n2C12COC(C1)C2)[C@@H]1CCCN1C` [I-15], the solubility at 24 h is greater than 153 µg/mL.

Another data set deals with KRAS (G12D)::SOS1 protein-protein interaction (Homo sapiens (Human), UniProt P01116, G12D). As to the kind of experiment: KRAS::SOS1 AlphaScreen binding assay (KRAS G12D). As to conditions: GDP. An excerpt:
This assay can be used to examine the potency with which compounds according to the invention binding to (mutated) KRAS inhibit the protein-protein interaction between SOS1 and (mutated) KRAS e.g. KRAS G12C, KRAS G12D. […] Low IC50 values in this assay setting are indicative of strong inhibition of protein-protein interaction between SOS1 and KRAS:
These assays measure the inhibitory effect of compounds on KRAS mutant protein-protein interactions using the Alpha Screen technology by Perkin Elmer.
The following (mutant) enzyme forms of KRAS and interacting proteins are used in these assays at the given concentrations:
KRAS (G12D) 1-169, N-terminal 6His-tag, C-terminal avi-tag (Xtal BioStructures, Inc.); final assay concentration 10 nM and SOS1 564-1049, N-terminal 229 GST-tag, TEV cleavage site (Viva Biotech Ltd); final assay concentration 5 nM;
Test compounds dissolved in DMSO are dispensed onto assay plates (Proxiplate 384 PLUS, white, PerkinElmer; 6008289) using an Access Labcyte Workstation with the Labcyte Echo 55x. For the chosen highest assay concentration of 100 μM, 150 nL of compound solution are transferred from a 10 mM DMSO compound stock solution. A series of eleven fivefold dilutions per compound are transferred to the assay plate, compound dilutions are tested in duplicates. DMSO are added as backfill to a total volume of 150 nL.
The assays run on a fully automated robotic system in a darkened room below 100 Lux. To 150 nl of compound dilution 10 μl of a mix including KRAS mutant protein, SOS1 (final assay concentrations see above) and GDP nucleotide (Sigma G7127; final assay concentration 10 μM) in assay buffer (1×PBS, 0.1% BSA, 0.05% Tween 20) are added into columns 1-24.
After 30 minutes incubation time 5 μl of Alpha Screen bead mix in assay buffer are added into columns 1-23. Bead mix consists of AlphaLISA Glutathione Acceptor Beads (PerkinElmer, Cat No AL109) and AlphaScreen Streptavidin Donor Beads (PerkinElmer Cat No 6760002) in assay buffer at a final assay concentration of 10 μg/mL each.
Plates are kept at room temperature in a darkened incubator. After an additional 60 minutes incubation time the signal is measured in a PerkinElmer Envision HTS Multilabel Reader using the AlphaScreen specs from PerkinElmer.
Each plate contains up to 16 wells of a negative control depending on the dilution procedure (platewise or serial) (DMSO instead of test compound; with KRAS mutant::SOS1 GOP mix and bead mix; column 23) and 16 wells of a positive control (DMSO instead of test compound; with KRAS mutant::SOS1 GOP mix w/o bead mix; column 24).
As internal control known inhibitors of KRAS mutant::SOS1 interaction can be measured on each compound plate.
IC50 values are calculated and analyzed with Boehringer Ingelheim's MEGALAB C50 application using a 4 parametric logistic model.
Tables of example compounds disclosed herein contain IC50 values determined using the above assays (see Table 43).
In general terms: In Alpha technology, singlet oxygen from a donor bead excites a nearby acceptor bead.
`C[C@H](Oc1nc(-c2noc3c2CCC[C@@]32CCCc3sc(N)c(C#N)c32)nc2c1COC[C@@]21CCOC1)[C@@H]1CCCN1C` [II-9a]: the IC50 – broadly, the point on the concentration scale where inhibition reaches its midpoint – came to 2 nM.

In the case of `CO[C@H]1C[C@@H](n2c(=O)n(C)c3c(O[C@@H](C)[C@@H]4CCCN4C)nc(-c4onc5c4CCC[C@@]54CCCc5sc(N)c(C#N)c54)nc32)C1` [I-31], the IC50 stood at 1 nM.

For the molecule `CO[C@@H]1C[C@@H]([C@H](C)Oc2nc(-c3noc4c3CCC[C@@]43CCCc4sc(N)c(C#N)c43)nc3c2COC[C@]32CCOC2)N(C)C1` [II-11], the half-inhibitory concentration (IC50) came out at 1 nM.

On to `C[C@H](Oc1nc(-c2onc3c2CCC[C@@]32CCCc3sc(N)c(C#N)c32)nc2c1n(C)c(=O)n2C12COC(C1)C2)[C@@H]1CCCN1C` [I-15], for which the IC50 amounted to 2 nM.

The next data set relates to LOVO cells. As to the kind of experiment: LOVO CTG proliferation assay (120 h) (CRC, G13D). The data set is classed as cell-based. As to conditions: Homo sapiens. On the procedure: (§1) LOVO cells (ATCC No. CCL-229) are dispensed into black 384-well plates, flat and clear bottom (Greiner, PNr. 781091) at a density of 1000 cells per well in 60 μl DMEM (Sigma D6429)+10% FCS (fetal calf serum, HyClone, SH30084.03). Cells are incubated overnight at 37° C. in a humidified tissue culture incubator at 5% CO2. Compounds (10 mM stock in DMSO) are added at logarithmic dose series using the ECHO acoustic liquid handler system (Beckman Coulter), normalizing for added DMSO and including DMSO controls. All compound treatments are performed in technical duplicates. For the TO time point measurement, untreated cells are analyzed at the time of compound addition. Plates are incubated for 120 h, and cell viability is measured using CellTiter-Glo luminescent cell viability reagent (Promega product code G7570). Viability (stated as percent of control) is defined as relative luminescence units RLU of each well divided by the RLU of cells in DMSO controls. IC50 values are determined from viability measurements by non-linear regression using a four-parameter model.
(§2) IC50 values of representative compounds according to the invention measured with these assays in the indicated cell lines are presented in Table 46.
In turn, `C[C@H](Oc1nc(-c2noc3c2CCC[C@@]32CCCc3sc(N)c(C#N)c32)nc2c1COC[C@@]21CCOC1)[C@@H]1CCCN1C` [II-9a] came in with a concentration for half-maximal inhibition (IC50) of 274 nM.

Take `CO[C@H]1C[C@@H](n2c(=O)n(C)c3c(O[C@@H](C)[C@@H]4CCCN4C)nc(-c4onc5c4CCC[C@@]54CCCc5sc(N)c(C#N)c54)nc32)C1` [I-31]: the midpoint of inhibition, the IC50, lay at 36 nM.

For `CO[C@@H]1C[C@@H]([C@H](C)Oc2nc(-c3noc4c3CCC[C@@]43CCCc4sc(N)c(C#N)c43)nc3c2COC[C@]32CCOC2)N(C)C1` [II-11], the IC50 was determined as 6 nM.

`C[C@H](Oc1nc(-c2onc3c2CCC[C@@]32CCCc3sc(N)c(C#N)c32)nc2c1n(C)c(=O)n2C12COC(C1)C2)[C@@H]1CCCN1C` [I-15] had a half-maximal inhibitory concentration (IC50) of 7 nM.

A further data set relates to NCI-H358 cells. As to the kind of experiment: NCI-H358 CTG proliferation assay (120 h) (NSCLC, G12C). As to conditions: Homo sapiens. The data set is classed as cell-based. On the procedure:
as §1, with “NCI-H358” for “LOVO”, “CRL-5807)” for “CCL-229)”, “200” for “1000”, “RPMI-1640 ATCC-Formulation (Gibco #A10491)+10%” for “DMEM (Sigma D6429)+10%”, “serum).” for “serum, HyClone, SH30084.03).”
as §2
In the case of `C[C@H](Oc1nc(-c2noc3c2CCC[C@@]32CCCc3sc(N)c(C#N)c32)nc2c1COC[C@@]21CCOC1)[C@@H]1CCCN1C` [II-9a], the IC50 came to 74 nM.

The molecule `CO[C@H]1C[C@@H](n2c(=O)n(C)c3c(O[C@@H](C)[C@@H]4CCCN4C)nc(-c4onc5c4CCC[C@@]54CCCc5sc(N)c(C#N)c54)nc32)C1` [I-31] gave a concentration for half-maximal inhibition (IC50) of 60 nM.

Take `CO[C@@H]1C[C@@H]([C@H](C)Oc2nc(-c3noc4c3CCC[C@@]43CCCc4sc(N)c(C#N)c43)nc3c2COC[C@]32CCOC2)N(C)C1` [II-11]: the half-maximal inhibitory concentration (IC50) came to 3 nM.

`C[C@H](Oc1nc(-c2onc3c2CCC[C@@]32CCCc3sc(N)c(C#N)c32)nc2c1n(C)c(=O)n2C12COC(C1)C2)[C@@H]1CCCN1C` [I-15]: the IC50 is 11 nM.

These data come from patent US20250019385A1, “SPIROCYCLIC ANNULATED 2-AMINO-3-CYANO THIOPHENES AND DERIVATIVES FOR THE TREATMENT OF CANCER” (Boehringer Ingelheim International GmbH, priority 2023, published 2025).
